{"source": "patent US20220265817A1", "about": "“THERAPEUTIC COMPOSITIONS AND METHODS FOR TREATING HEPATITIS B” (priority 2017, published 2022)", "key": {"[1]": {"test_system": "D type HBV in primary human hepatocytes (HBeAg)", "test": "microbe, parasite or virus in culture", "type": "cell-based", "conditions": "Hepatitis B virus, Hepatocyte", "method_in_brief": "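Primary hepatocytes isolated by liver perfusion and Percoll-purified were infected with genotype D HBV one day post-seeding. Compounds were added on day 2 (7 concentrations, 3-fold dilutions, triplicate), with medium refreshed every other day. Day-8 supernatant HBeAg was measured by ELISA and expressed as % inhibition versus DMSO control.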"}, "[2]": {"test_system": "D type HBV in primary human hepatocytes (HBsAg)", "test": "microbe, parasite or virus in culture", "type": "cell-based", "conditions": "Hepatitis B virus, Hepatocyte", "method_in_brief": "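PHHs isolated by liver perfusion and Percoll, infected with genotype D HBV on day 1; compounds added day 2 and refreshed every other day. Supernatant HBsAg on day 8 by ELISA, % inhibition vs DMSO control. Seven 3-fold concentrations in triplicate; combinations as 5×5 matrix.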"}, "[3]": {"test_system": "HBV rcDNA in HepDE19 cells", "test": "HepDE19 cell culture system, rcDNA quantitation using bDNA assay, MacSynergy II", "type": "cell-based, human hepatoma cell line", "conditions": "for AVERAGE % INHIBITION: GLS-4 0 μM; for EC50: Hepatitis B virus"}, "[4]": {"conditions": "456 h, read-out: Inhibitor B EC50"}}, "note": "Like-named read-outs stand apart in the source and are kept apart here."}
{"smiles": "CC[C@@H](C)NS(=O)(=O)c1ccc(F)c(C(=O)Nc2ccc(F)c(F)c2)c1", "note": "[Compound 3]", "values": [{"measurement": "EC50", "setting": "[1]; [4]", "value": 8.85, "unit": "µM"}, {"measurement": "EC50", "setting": "[1]; 576 h, read-out: Inhibitor B EC50 HBeAg", "value": 8.58, "unit": "µM"}, {"measurement": "inhibition at 0.06173 µM", "setting": "[1]; read-out: AVERAGE % INHIBITION HBeAg, COMPOUND 3 61.73 nM alone", "value": -11.3, "unit": "%"}, {"measurement": "inhibition at 0.18519 µM", "setting": "[1]; read-out: AVERAGE % INHIBITION HBeAg, COMPOUND 3 185.19 nM alone", "value": -16, "unit": "%"}, {"measurement": "inhibition at 0.55556 µM", "setting": "[1]; read-out: AVERAGE % INHIBITION HBeAg, COMPOUND 3 555.56 nM alone", "value": -5.39, "unit": "%"}, {"measurement": "inhibition at 1.66667 µM", "setting": "[1]; read-out: AVERAGE % INHIBITION HBeAg, COMPOUND 3 1666.67 nM alone", "value": 2.34, "unit": "%"}, {"measurement": "inhibition at 5 µM", "setting": "[1]; read-out: AVERAGE % INHIBITION HBeAg, COMPOUND 3 5000.00 nM alone", "value": 27.3, "unit": "%"}, {"measurement": "inhibition at 61.73 µM", "setting": "[1]; read-out: AVERAGE % INHIBITION HBeAg, COMPOUND 3 61.73 μM alone", "value": -11.1, "unit": "%"}, {"measurement": "inhibition at 185.19 µM", "setting": "[1]; read-out: AVERAGE % INHIBITION HBeAg, COMPOUND 3 185.19 μM alone", "value": -4.9, "unit": "%"}, {"measurement": "inhibition at 555.56 µM", "setting": "[1]; read-out: AVERAGE % INHIBITION HBeAg, COMPOUND 3 555.56 μM alone", "value": -1.02, "unit": "%"}, {"measurement": "inhibition at 0.06859 µM", "setting": "[1]; read-out: AVERAGE % INHIBITION, TAF 0.00 nM, COMPOUND 3 68.59 nM", "value": -5.05, "unit": "%"}, {"measurement": "inhibition at 0.20576 µM", "setting": "[1]; read-out: AVERAGE % INHIBITION, TAF 0.00 nM, COMPOUND 3 205.76 nM", "value": -6.33, "unit": "%"}, {"measurement": "inhibition at 0.61728 µM", "setting": "[1]; read-out: AVERAGE % INHIBITION, TAF 0.00 nM, COMPOUND 3 617.28 nM", "value": 2.77, "unit": "%"}, {"measurement": "inhibition at 1.85185 µM", "setting": "[1]; read-out: AVERAGE % INHIBITION, TAF 0.00 nM, COMPOUND 3 1851.85 nM", "value": 29.7, "unit": "%"}, {"measurement": "inhibition at 5.55556 µM", "setting": "[1]; read-out: AVERAGE % INHIBITION, TAF 0.00 nM, COMPOUND 3 5555.56 nM", "value": 40.4, "unit": "%"}, {"measurement": "EC50", "setting": "[1]; read-out: Inhibitor EC50", "value": 8.85, "unit": "µM"}, {"measurement": "EC50", "setting": "[2]; [4]", "value": 7.79, "unit": "µM"}, {"measurement": "EC50", "setting": "[2]; 576 h, read-out: Inhibitor B EC50 HBsAg", "value": 7.79, "unit": "µM"}, {"measurement": "inhibition at 0.06173 µM", "setting": "[2]; read-out: AVERAGE % INHIBITION HBsAg, COMPOUND 3 61.73 nM alone (Table 19b)", "value": -20, "unit": "%"}, {"measurement": "inhibition at 0.06864 µM", "setting": "[2]; read-out: AVERAGE % INHIBITION HBsAg, COMPOUND 3 68.64 nM alone (Table 20b)", "value": -16.4, "unit": "%"}, {"measurement": "inhibition at 0.18519 µM", "setting": "[2]; read-out: AVERAGE % INHIBITION HBsAg, COMPOUND 3 185.19 nM alone (Table 19b)", "value": -17.3, "unit": "%"}, {"measurement": "inhibition at 0.20593 µM", "setting": "[2]; read-out: AVERAGE % INHIBITION HBsAg, COMPOUND 3 205.93 nM alone (Table 20b)", "value": -21.6, "unit": "%"}, {"measurement": "inhibition at 0.55556 µM", "setting": "[2]; read-out: AVERAGE % INHIBITION HBsAg, COMPOUND 3 555.56 nM alone (Table 19b)", "value": -14, "unit": "%"}, {"measurement": "inhibition at 0.61778 µM", "setting": "[2]; read-out: AVERAGE % INHIBITION HBsAg, COMPOUND 3 617.78 nM alone (Table 20b)", "value": -5.12, "unit": "%"}, {"measurement": "inhibition at 1.66667 µM", "setting": "[2]; read-out: AVERAGE % INHIBITION HBsAg, COMPOUND 3 1666.67 nM alone (Table 19b)", "value": 1.44, "unit": "%"}, {"measurement": "inhibition at 1.85333 µM", "setting": "[2]; read-out: AVERAGE % INHIBITION HBsAg, COMPOUND 3 1853.33 nM alone (Table 20b)", "value": 14.6, "unit": "%"}, {"measurement": "inhibition at 5 µM", "setting": "[2]; read-out: AVERAGE % INHIBITION HBsAg, COMPOUND 3 5000.00 nM alone (Table 19b)", "value": 28.2, "unit": "%"}, {"measurement": "inhibition at 5.56 µM", "setting": "[2]; read-out: AVERAGE % INHIBITION HBsAg, COMPOUND 3 5560.00 nM alone (Table 20b)", "value": 43.8, "unit": "%"}, {"measurement": "inhibition at 61.73 µM", "setting": "[2]; read-out: AVERAGE % INHIBITION HBsAg, COMPOUND 3 61.73 μM alone", "value": -5.49, "unit": "%"}, {"measurement": "inhibition at 185.19 µM", "setting": "[2]; read-out: AVERAGE % INHIBITION HBsAg, COMPOUND 3 185.19 μM alone", "value": -1.46, "unit": "%"}, {"measurement": "inhibition at 555.56 µM", "setting": "[2]; read-out: AVERAGE % INHIBITION HBsAg, COMPOUND 3 555.56 μM alone", "value": 4.63, "unit": "%"}, {"measurement": "EC50", "setting": "[2]; read-out: Inhibitor EC50", "value": 7.79, "unit": "µM"}, {"measurement": "AVERAGE % INHIBITION", "setting": "[3]; COMPOUND 3 0.040 μM", "value": 11.14, "unit": "%"}, {"measurement": "AVERAGE % INHIBITION", "setting": "[3]; COMPOUND 3 0.110 μM", "value": 19.99, "unit": "%"}, {"measurement": "AVERAGE % INHIBITION", "setting": "[3]; COMPOUND 3 0.330 μM", "value": 56.68, "unit": "%"}, {"measurement": "AVERAGE % INHIBITION", "setting": "[3]; COMPOUND 3 1.000 μM", "value": 86.87, "unit": "%"}, {"measurement": "AVERAGE % INHIBITION", "setting": "[3]; COMPOUND 3 3.000 μM", "value": 94.49, "unit": "%"}, {"measurement": "EC50", "setting": "[3]; HepDE19, rcDNA, bDNA assay, DE19 cells, read-out: Inhibitor A EC50", "value": 272, "unit": "nM"}, {"measurement": "EC50", "setting": "[3]; HepDE19, rcDNA by bDNA assay, single agent, read-out: INHIBITOR A EC50", "value": 454, "unit": "nM"}]}
